In ChEMBL document CHEMBL2413072, “Synthesis and in vitro anticancer studies of novel C-2 arylidene congeners of lantadenes” (2013):

What was measured:
Assay type in all cases: functional
KM12 = test: Growth inhibition of human KM12 cells by sulforhodamine B assay
M14 [1] = test: Growth inhibition of human M14 cells by sulforhodamine B assay
OVCAR-8 = test: Growth inhibition of human OVCAR8 cells assessed as cell growth at 10^-7 M by sulforhodamine B assay; settings: read-out: Activity
HT-29 [2] = test: Growth inhibition of human HT-29 cells by sulforhodamine B assay
MDA-MB-468 [3] = test: Growth inhibition of human MDA-MB-468 cells assessed as cell growth at 10^-8 M by sulforhodamine B assay; settings: read-out: Activity
SK-MEL-28 = test: Growth inhibition of human SK-MEL-28 cells by sulforhodamine B assay
[4] = Growth inhibition of human HCC2998 cells assessed as cell growth at 10^-6 M by sulforhodamine B assay; settings: HCC 2998, read-out: Activity
MDA-MB-231 = test: Growth inhibition of human MDA-MB-231 cells assessed as cell growth at 10^-4 M by sulforhodamine B assay; settings: read-out: Activity
HL-60(TB) = test: Growth inhibition of human HL-60(TB) cells assessed as cell growth at 10^-8 M by sulforhodamine B assay; settings: read-out: Activity
SNB-75 = test: Growth inhibition of human SNB75 cells assessed as cell growth at 10^-6 M by sulforhodamine B assay; settings: read-out: Activity
UACC-62 = test: Growth inhibition of human UACC62 cells assessed as cell growth at 10^-7 M by sulforhodamine B assay; settings: read-out: Activity
SK-MEL-5 = test: Growth inhibition of human SK-MEL-5 cells assessed as cell growth at 10^-6 M by sulforhodamine B assay; settings: read-out: Activity
SK-OV-3 [5] = test: Growth inhibition of human SKOV3 cells assessed as cell growth at 10^-6 M by sulforhodamine B assay; settings: read-out: Activity
TK-10 = test: Growth inhibition of human TK10 cells assessed as cell growth at 10^-4 M by sulforhodamine B assay; settings: read-out: Activity
786-0 = test: Growth inhibition of human 786-0 cells assessed as cell growth at 10^-7 M by sulforhodamine B assay; settings: read-out: Activity
MOLT-4 [6] = test: Growth inhibition of human MOLT4 cells assessed as cell growth at 10^-6 M by sulforhodamine B assay; settings: read-out: Activity
SW-620 = test: Growth inhibition of human SW620 cells assessed as cell growth at 10^-8 M by sulforhodamine B assay; settings: read-out: Activity
BT-549 [7] = test: Growth inhibition of human BT549 cells assessed as cell growth at 10^-7 M by sulforhodamine B assay; settings: read-out: Activity
MOLT-4 [8] = test: Growth inhibition of human MOLT4 cells assessed as cell growth at 10^-7 M by sulforhodamine B assay; settings: read-out: Activity
HOP-62 [9] = test: Growth inhibition of human HOP62 cells by sulforhodamine B assay
UACC-257 = test: Growth inhibition of human UACC257 cells assessed as cell growth at 10^-8 M by sulforhodamine B assay; settings: read-out: Activity
HT-29 [10] = test: Growth inhibition of human HT-29 cells assessed as cell growth at 10^-4 M by sulforhodamine B assay; settings: read-out: Activity
UO-31 = test: Growth inhibition of human UO31 cells assessed as cell growth at 10^-8 M by sulforhodamine B assay; settings: read-out: Activity
SK-OV-3 [11] = test: Growth inhibition of human SKOV3 cells assessed as cell growth at 10^-8 M by sulforhodamine B assay; settings: read-out: Activity
MDA-MB-468 [12] = test: Growth inhibition of human MDA-MB-468 cells by sulforhodamine B assay
OVCAR-5 [13] = test: Growth inhibition of human OVCAR5 cells assessed as cell growth at 10^-7 M by sulforhodamine B assay; settings: read-out: Activity
K562 [14] = test: Growth inhibition of human K562 cells assessed as cell growth at 10^-7 M by sulforhodamine B assay; settings: read-out: Activity
K562 [15] = test: Growth inhibition of human K562 cells by sulforhodamine B assay
PC-3 = test: Growth inhibition of human PC3 cells by sulforhodamine B assay
HOP-62 [16] = test: Growth inhibition of human HOP62 cells assessed as cell growth at 10^-4 M by sulforhodamine B assay; settings: read-out: Activity
SK-OV-3 [17] = test: Growth inhibition of human SKOV3 cells assessed as cell growth at 10^-7 M by sulforhodamine B assay; settings: read-out: Activity
M14 [18] = test: Growth inhibition of human M14 cells assessed as cell growth at 10^-6 M by sulforhodamine B assay; settings: read-out: Activity
BT-549 [19] = test: Growth inhibition of human BT549 cells assessed as cell growth at 10^-6 M by sulforhodamine B assay; settings: read-out: Activity
SF-268 = test: Growth inhibition of human SF268 cells assessed as cell growth at 10^-4 M by sulforhodamine B assay; settings: read-out: Activity
ACHN = test: Growth inhibition of human ACHN cells assessed as cell growth at 10^-8 M by sulforhodamine B assay; settings: read-out: Activity
NCI-H23 = test: Growth inhibition of human NCI-H23 cells assessed as cell growth at 10^-7 M by sulforhodamine B assay; settings: read-out: Activity
LOX IMVI = test: Growth inhibition of human LOXIMVI cells assessed as cell growth at 10^-6 M by sulforhodamine B assay; settings: read-out: Activity
Malme-3M = test: Growth inhibition of human MALME-3M cells by sulforhodamine B assay
OVCAR-5 [20] = test: Growth inhibition of human OVCAR5 cells by sulforhodamine B assay
[21] = read-out: LC50 (the source's name)
[22] = read-out: pLC50 (the source's name) (converted)

SMILES: C/C=C(/C)C(=O)O[C@@H]1CC(C)(C)C[C@H]2C3=CC[C@@H]4[C@@]5(C)CCC(=O)C(C)(C)[C@@H]5CC[C@@]4(C)[C@]3(C)CC[C@@]12C(=O)O [LANTADENE A]
- GI50 (KM12; read-out: GI50): 3.52 µM
- LC50 (50% net cell kill) (KM12; read-out: LC50): > 100 µM
- TGI (KM12; read-out: TGI): > 100 µM
- GI50 (KM12; read-out: pGI50 (converted)): 3.55 µM
- LC50 (50% net cell kill) (KM12; read-out: pLC50 (converted)): > 100 µM
- TGI (KM12; read-out: pTGI (converted)): > 100 µM
- GI50 (M14 [1]; read-out: GI50): 4.53 µM
- CC50 (M14 [1]; [21]): > 100 µM
- TGI (M14 [1]; read-out: TGI): > 100 µM
- GI50 (M14 [1]; read-out: pGI50 (converted)): 4.57 µM
- CC50 (M14 [1]; [22]): > 100 µM
- TGI (M14 [1]; read-out: pTGI (converted)): > 100 µM
- growth at 0.1 µM (OVCAR-8): 98%
- GI50 (HT-29 [2]; read-out: GI50): 4.32 µM
- LC50 (50% cell kill) (HT-29 [2]; read-out: LC50): > 100 µM
- TGI (HT-29 [2]; read-out: TGI): > 100 µM
- GI50 (HT-29 [2]; read-out: pGI50 (converted)): 4.37 µM
- LC50 (50% cell kill) (HT-29 [2]; read-out: pLC50 (converted)): > 100 µM
- TGI (HT-29 [2]; read-out: pTGI (converted)): > 100 µM
- growth at 0.01 µM (MDA-MB-468 [3]): 95%
- GI50 (SK-MEL-28; read-out: GI50): 12.8 µM
- CC50 (SK-MEL-28; [21]): > 100 µM
- TGI (SK-MEL-28; read-out: TGI): > 100 µM
- GI50 (SK-MEL-28; read-out: pGI50 (converted)): 12.9 µM
- CC50 (SK-MEL-28; [22]): > 100 µM
- TGI (SK-MEL-28; read-out: pTGI (converted)): > 100 µM
- growth at 1 µM [4]: 98%
- growth at 100 µM (MDA-MB-231): -26%
- growth at 0.01 µM (HL-60(TB)): 100%
- growth at 1 µM (SNB-75): 88%
- growth at 0.1 µM (UACC-62): 85%
- growth at 1 µM (SK-MEL-5): 58%
- growth at 1 µM (SK-OV-3 [5]): 103%
- growth at 100 µM (TK-10): 6%
- growth at 0.1 µM (786-0): 94%
- growth at 1 µM (MOLT-4 [6]): 89%
- growth at 0.01 µM (SW-620): 100%
- growth at 0.1 µM (BT-549 [7]): 95%
- growth at 0.1 µM (MOLT-4 [8]): 102%
- GI50 (HOP-62 [9]; read-out: GI50): 20.6 µM
- LC50 (concentration killing 50% of cells) (HOP-62 [9]; read-out: LC50): > 100 µM
- TGI (HOP-62 [9]; read-out: TGI): > 100 µM
- GI50 (HOP-62 [9]; read-out: pGI50 (converted)): 20.4 µM
- LC50 (concentration killing 50% of cells) (HOP-62 [9]; read-out: pLC50 (converted)): > 100 µM
- TGI (HOP-62 [9]; read-out: pTGI (converted)): > 100 µM
- growth at 0.01 µM (UACC-257): 96%
- growth at 100 µM (HT-29 [10]): 19%
- growth at 0.01 µM (UO-31): 96%
- growth at 0.01 µM (SK-OV-3 [11]): 103%
- GI50 (MDA-MB-468 [12]; read-out: GI50): 2580 nM
- CC50 (MDA-MB-468 [12]; [21]): > 100 µM
- TGI (MDA-MB-468 [12]; read-out: TGI): > 100 µM
- GI50 (MDA-MB-468 [12]; read-out: pGI50 (converted)): 2570 nM
- CC50 (MDA-MB-468 [12]; [22]): > 100 µM
- TGI (MDA-MB-468 [12]; read-out: pTGI (converted)): > 100 µM
- growth at 0.1 µM (OVCAR-5 [13]): 100%
- growth at 0.1 µM (K562 [14]): 100%
- GI50 (K562 [15]; read-out: GI50): 4.72 µM
- LC50 (K562 [15]; read-out: LC50): > 100 µM
- TGI (K562 [15]; read-out: TGI): > 100 µM
- GI50 (K562 [15]; read-out: pGI50 (converted)): 4.68 µM
- LC50 (K562 [15]; read-out: pLC50 (converted)): > 100 µM
- TGI (K562 [15]; read-out: pTGI (converted)): > 100 µM
- GI50 (PC-3; read-out: GI50): 2530 nM
- CC50 (PC-3; [21]): > 100 µM
- TGI (PC-3; read-out: TGI): > 100 µM
- GI50 (PC-3; read-out: pGI50 (converted)): 2510 nM
- CC50 (PC-3; [22]): > 100 µM
- TGI (PC-3; read-out: pTGI (converted)): > 100 µM
- growth at 100 µM (HOP-62 [16]): 26%
- growth at 0.1 µM (SK-OV-3 [17]): 114%
- growth at 1 µM (M14 [18]): 80%
- growth at 1 µM (BT-549 [19]): 90%
- growth at 100 µM (SF-268): 34%
- growth at 0.01 µM (ACHN): 110%
- growth at 0.1 µM (NCI-H23): 99%
- growth at 1 µM (LOX IMVI): 92%
- GI50 (Malme-3M; read-out: GI50): 7.91 µM
- CC50 (Malme-3M; [21]): > 100 µM
- TGI (Malme-3M; read-out: TGI): > 100 µM
- GI50 (Malme-3M; read-out: pGI50 (converted)): 7.94 µM
- CC50 (Malme-3M; [22]): > 100 µM
- TGI (Malme-3M; read-out: pTGI (converted)): > 100 µM
- GI50 (OVCAR-5 [20]; read-out: GI50): 18.3 µM
- CC50 (OVCAR-5 [20]; [21]): > 100 µM
- TGI (OVCAR-5 [20]; read-out: TGI): > 100 µM
- GI50 (OVCAR-5 [20]; read-out: pGI50 (converted)): 18.2 µM
- CC50 (OVCAR-5 [20]; [22]): > 100 µM
- TGI (OVCAR-5 [20]; read-out: pTGI (converted)): > 100 µM
